Experimental findings from patent US9199975B2, “Biaryl imidazole derivatives for regulating CYP17” (Asana Biosciences, LLC, priority 2011, dated 2015) are described below.

A word on the IC50: it is the concentration at which inhibition is half-maximal. Low readings indicate greater potency, high ones weaker potency.

Molecules are shown by their SMILES.

One experiment deals with T1, rat CYP17 (Rattus norvegicus, UniProt P11715).
T1 construct: Rat testis tissue was collected and disrupted with 30 strokes of a glass homogenizer; from tissue; host or cells: rat testis (microsomal fraction)
T1 sequence (P11715 1-507): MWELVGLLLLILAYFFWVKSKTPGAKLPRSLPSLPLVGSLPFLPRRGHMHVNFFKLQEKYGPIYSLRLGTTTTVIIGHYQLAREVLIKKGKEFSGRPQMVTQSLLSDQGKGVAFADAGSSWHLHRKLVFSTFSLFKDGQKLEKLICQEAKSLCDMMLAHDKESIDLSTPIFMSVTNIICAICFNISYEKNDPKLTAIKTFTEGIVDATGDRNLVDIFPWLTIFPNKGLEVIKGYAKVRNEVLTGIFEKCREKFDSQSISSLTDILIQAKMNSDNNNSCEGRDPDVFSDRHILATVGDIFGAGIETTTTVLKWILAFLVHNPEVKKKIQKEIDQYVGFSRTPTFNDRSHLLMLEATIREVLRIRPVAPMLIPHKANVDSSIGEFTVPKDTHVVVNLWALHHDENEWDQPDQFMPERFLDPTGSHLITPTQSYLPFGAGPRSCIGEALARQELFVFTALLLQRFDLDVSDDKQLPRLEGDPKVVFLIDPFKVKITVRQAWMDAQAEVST
Put plainly: CYP17 inhibition assay in rat testicular microsomes. The experiment is classed as biochemical. Conditions: 3H3-17α-hydroxypregnenolone substrate, 60 minutes at 37° C. On the procedure:
(§1) CYP17 Inhibition Assay in Rat Testicular Microsomes (Rat CYP17) or Yeast Microsome Overexpressing Human CYP17
(§2) A. Materials • 1. NADPH (Sigma): A working stock was prepared by adding 25 μL of 6.5 mM NADPH in each tube. The final concentration of NADPH used in the assay was 325 μM. • 2. Potassium Phosphate Buffer: One molar (1M) solutions of K2HPO4 and KH2PO4 were prepared. Eight mL of the 1 M KH2PO4 and 1.98 mL of the 1 M K2HPO4 were combined and the pH was adjusted to 7.4. • 3. ^3H3-17α-hydroxypregnenolone (American Radiolabeled Chemicals, Inc., stock 1 μCi/μL): A 1:1 dilution of ^3H3-17α-hydroxypregnenolone in ethanol was prepared by combining 100 μL ^3H3-17α-hydroxypregnenolone+100 μL ethanol for one complete 96 well plate. For the reaction, 2 μL of the diluted ^3H3-17α-hydroxypregnenolone was added in each tube, i.e., 1 μCi/reaction. • 4. Microsome Isolation Buffer: The microsome isolation buffer was prepared by combining 250 mM Sucrose, 5 mM EDTA, 10 mM Tris HCl, 4 mM DTT, and adjusting to pH 7.4. • 5. TEG Buffer: The TEG buffer was prepared by combining 50 mM Tris HCl, 1 mM EDTA, and 20% Glycerol. • 6. Rat Testicular Microsomes: Rat testis tissue was collected and disrupted with 30 strokes of a glass homogenizer on ice with 250 μL of microsome isolation buffer, followed by centrifugation at 10,000 g for 10 minutes at 4° C. The supernatant was collected and centrifuged at 100,000 g for 45 minutes at 4° C. The pellet was dissolved in TEG Buffer and the protein was quantified. The homogenized microsome samples were then frozen at −80° C. • 7. Yeast Microsomes which overexpress the human CYP17 enzyme were obtained from Premas Biotech, India.
(§3) Potassium phosphate buffer (470 μL) was prepared as described above and was added to each well of a deep well plate. The test compound was diluted using a TECAN liquid handler and 5 μL of diluted compound was transferred to each well (96 deep well/1 mL). A solution (25 μL) of 6.5 mM NADPH was added (final concentration of 325 µM in the assay). ^3H3-17α-hydroxypregnenolone (2 μL of the working stock) was added to each tube. The plates were then pre-incubated for 15 minutes at 37° C. Following the pre-incubation, either 5 μL rat testicular microsomes (150-160 μg) or 5 μL of yeast microsomes expressing human CYP17 (1.7 pmol), was added. Incubation was at 37° C. for 60 minutes in the presence of oxygen. The plates were then placed in ice and chloroform (500 μL) was added, mixed well and incubated at 4° C. for 20 minutes. The plates were then centrifuged at 1000 rpm for 15 minutes at 4° C.
(§4) A portion (300 μL) of the aqueous solution was collected and mixed with a 5% aqueous suspension of activated charcoal (300 μL). The plates were then incubated at 4° C. for 30 minutes, after which the plates were centrifuged at 1000 rpm for 15 minutes at 4° C. From this, 125 μL of the aqueous solution was collected and plated into a 96 well plate. Microscint™ 40 [125 μL, Perkin-Elmer; containing a mixture of a polymer based on alkylphenolethoxylate (20-40%), diethanolamine-phosphoric acid ester ammonium salt (10-20%), sodium dioctyl sulphosuccinate (2.5-10%), triethyl phosphate (2.5-10%), 3,6-dimethyl-4-octyne-3,6-diol (≦2.5%), a polymer based on nonylphenolethoxylate (≦2.5%), diisopropyl naphthalene isomers (40-60%), 2,5-diphenyloxazole (≦2.5%), and 9,10-dimethylanthracene] was added and mixed well. After 30 minutes of incubation, the samples were analyzed with a MicroBeta® Trilux microplate liquid scintillation counter and luminometer (Perkin-Elmer).

Another experiment has as its target T2, human CYP17 (Homo sapiens, UniProt P05093).
T2 sequence (P05093 1-508): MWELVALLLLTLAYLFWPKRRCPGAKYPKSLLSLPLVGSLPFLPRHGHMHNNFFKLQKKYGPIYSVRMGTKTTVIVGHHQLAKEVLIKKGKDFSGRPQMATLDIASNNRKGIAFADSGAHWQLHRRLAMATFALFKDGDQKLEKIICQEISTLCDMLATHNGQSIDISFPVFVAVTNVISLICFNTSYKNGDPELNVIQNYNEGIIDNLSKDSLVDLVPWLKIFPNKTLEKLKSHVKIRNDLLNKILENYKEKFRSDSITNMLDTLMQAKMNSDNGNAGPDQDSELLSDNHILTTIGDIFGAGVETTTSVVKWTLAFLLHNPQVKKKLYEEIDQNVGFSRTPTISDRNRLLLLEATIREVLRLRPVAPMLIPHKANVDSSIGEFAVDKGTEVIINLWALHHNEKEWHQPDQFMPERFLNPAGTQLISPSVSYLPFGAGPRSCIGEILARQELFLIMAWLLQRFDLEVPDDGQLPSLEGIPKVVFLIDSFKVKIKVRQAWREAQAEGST
Put plainly: CYP17 inhibition assay in yeast microsomes overexpressing human CYP17. The settings on record: yeast microsomes expressing human CYP17, 3H3-17α-hydroxypregnenolone substrate, 60 minutes at 37° C. The experiment is classed as biochemical. The procedure:
as §1, §2, §3, §4

In the case of `CCC(c1ccc(-c2cccc(OC)c2)cn1)n1ccnc1` (stereo not drawn) [Example 7, 2-(1-(1H-imidazol-1-yl)propyl)-5-(3-methoxyphenyl)pyridine], the half-inhibitory concentration (IC50) at rat CYP17 and at human CYP17 was less than 50 nM in each case.

`CCC(c1cnc(-c2ccc(O)cc2)s1)n1ccnc1` (stereo not drawn) [Example 60, 4-[5-(1-Imidazol-1-yl-propyl)-thiazol-2-yl]-phenol]: the results for the IC50 against rat CYP17 and against human CYP17 were 50 to 200 nM and 201 to 10000 nM, respectively.

On to `CCC(c1ccc(-c2ccc(OC)cc2)o1)n1ccnc1` (stereo not drawn) [Example 27, 1-{1-[5-(4-Methoxy-phenyl)-furan-2-y]-propyl}-1H-imidazole], for which the IC50 at rat CYP17 and on human CYP17 was less than 50 nM in each case.

For the molecule `CCC(c1ccc(-c2cccc(O)c2)cn1)n1ccnc1` (stereo not drawn) [Example 8, 3-(6-(1-(1H-imidazol-1-yl)propyl)pyridin-3-yl)phenol], the IC50 against rat CYP17 and against human CYP17 was less than 50 nM throughout.

As to `CC(c1cnc(-c2ccc(F)cc2F)s1)n1ccnc1` (stereo not drawn) [Example 28, 2-(2,4-Difluoro-phenyl)-5-(1-imidazol-1-yl-ethyl)-thiazole], the figures for the IC50 against rat CYP17 and at human CYP17 were less than 50 nM and 50 to 200 nM, respectively.

`CCC(c1cccc(-c2ccc(OC)cc2)n1)n1ccnc1` (stereo not drawn) [Example 38, 2-(1-Imidazol-1-yl-propyl)-6-(4-methoxy-phenyl) pyridine]: the values for the IC50 against rat CYP17 and against human CYP17 were less than 50 nM and 201 to 10000 nM, respectively.

For `CCC(c1ccc(-c2ccc(O)cc2)cn1)n1ccnc1` (stereo not drawn) [Example 50, 4-[6-(1-Imidazol-1-yl-propyl)-pyridin-3-yl]-phenol], the half-inhibitory concentration (IC50) on rat CYP17 and at human CYP17 was less than 50 nM throughout.

For `CCC(c1ccc(-c2ccc(O)cc2)o1)n1ccnc1` (stereo not drawn) [Example 30, 4-[5-(1-Imidazol-1-yl-propyl)-furan-2-yl]-phenol], the IC50 against rat CYP17 and against human CYP17 was less than 50 nM each time.

As for `CCC(c1cnc(-c2ccc(OC)nc2)s1)n1ccnc1` (stereo not drawn) [Example 51, 5-[5-(1-Imidazol-1-yl-propyl)-thiazol-2-yl]-2-methoxy-pyridine], the IC50 on rat CYP17 was less than 50 nM.

Regarding `CCC(c1ccc(-c2ccccc2O)cn1)n1ccnc1` (stereo not drawn) [Example 37, 2-[6-(1-Imidazol-1-yl-propyl)-pyridin-3-yl]-phenol], the values for the IC50 against rat CYP17 and at human CYP17 were less than 50 nM and 50 to 200 nM, respectively.

With `COc1ccc(-c2ccc(C(C)(C)n3ccnc3)s2)cc1` [Example 24, 1-(2-(5-(4-methoxyphenyl)-thiophen-2-yl)-propan-2-yl)-1H-imidazole], the concentration for half-maximal inhibition (IC50) on rat CYP17 was less than 50 nM; against human CYP17, 50 to 200 nM.

For the molecule `COc1ccc(-c2cccc(C(C)n3ccnc3)n2)cc1` (stereo not drawn) [Example 42, 2-(1-Imidazol-1-yl-ethyl)-6-(4-methoxy-phenyl)-pyridine], the IC50 against rat CYP17 was less than 50 nM.

As for `CCC(c1ccc(-c2ccccc2C#N)cn1)n1ccnc1` (stereo not drawn) [Example 18, 2-(6-(1-(1H-imidazol-1-yl)propyl)pyridin-3-yl)benzonitrile], the IC50 against rat CYP17 was less than 50 nM.

On to `CCC(c1cnc(-c2ccc(=O)[nH]c2)s1)n1ccnc1` (stereo not drawn) [Example 59, 5-[5-(1-Imidazol-1-yl-propyl)-thiazol-2-yl]-1H-pyridin-2-one], for which, at rat CYP17, the IC50 lay within 50 to 200 nM.

In the case of `CC(c1ccc(-c2ccc(O)cc2)s1)n1ccnc1` (stereo not drawn) [Example 49, 4-[5-(1-Imidazol-1-yl-ethyl)-thiophen-2-yl]-phenol], the concentration for half-maximal inhibition (IC50) against rat CYP17 was less than 50 nM; at human CYP17, 50 to 200 nM.

In the case of `CC(c1ccc(-c2ccc(F)cc2)nc1)n1ccnc1` (stereo not drawn) [Example 54, 2-(4-Fluoro-phenyl)-5-(1-imidazol-1-yl-ethyl)-pyridine], the IC50 on rat CYP17 was less than 50 nM.

With `CCC(c1ccc(-c2ccc(C#N)cc2)cn1)n1ccnc1` (stereo not drawn) [Example 17, 4-[6-(1-Imidazol-1-yl-propyl)-pyridin-3-yl]-benzonitrile], the IC50 on rat CYP17 was less than 50 nM.

`CC(c1ccc(-c2ccc(F)cc2)cn1)n1ccnc1` (stereo not drawn) [Example 12, 2-(1-(1H-imidazol-1-yl)ethyl)-5-(4-fluorophenyl)pyridine] returned a half-maximal inhibitory concentration (IC50) on rat CYP17 of less than 50 nM.

The molecule `CCC(c1ccc(-c2ccc(O)cc2)s1)n1ccnc1` (stereo not drawn) [Example 4, 4-(5-(1-(1H-imidazol-1-yl)propyl)thiophen-2-yl)phenol] returned an IC50 against rat CYP17 of less than 50 nM.

On to `CC(c1cnc(-c2ccc(=O)[nH]c2)s1)n1ccnc1` (stereo not drawn) [Example 63, 5-[5-(1-Imidazol-1-yl-ethyl)-thiazol-2-yl]-1H-pyridin-2-one], for which the half-maximal inhibitory concentration (IC50) against rat CYP17 is 201 to 10000 nM.

At rat CYP17, `CC(c1ccc(-c2ccc(O)cc2)cn1)n1ccnc1` (stereo not drawn) [Example 16, 4-(6-(1-(1H-imidazol-1-yl)ethyl)pyridin-3-yl)phenol] yielded an IC50 of less than 50 nM.

For the molecule `CC(c1cnc(-c2ccc(C#N)cc2)s1)n1ccnc1` (stereo not drawn) [Example 22, 4-(5-(1-(1H-imidazol-1-yl)ethyl)thiazol-2-yl)benzonitrile], the IC50 at rat CYP17 is less than 50 nM.

Molecule `CCC(c1cnc(-c2ccc(F)cc2)s1)n1ccnc1` (stereo not drawn) [Example 33, 2-(4-Fluoro-phenyl)-5-(1-imidazol-1-yl-propyl)-thiazole] displayed an IC50 on rat CYP17 of less than 50 nM.

On to `CCC(c1ccc(-c2ccc(F)cc2)cn1)n1ccnc1` (stereo not drawn) [Example 29, 5-(4-Fluoro-phenyl)-2-(1-imidazol-1-yl-propyl)-pyridine], for which, on rat CYP17, the half-maximal inhibitory concentration (IC50) was less than 50 nM.

For the molecule `CCC(c1cnc(-c2cn[nH]c2)s1)n1ccnc1` (stereo not drawn) [Example 44, 5-(1-Imidazol-1-yl-propyl)-2-(1H-pyrazol-4-yl)-thiazole], the IC50 on rat CYP17 was less than 50 nM.

Molecule `COc1ccc(-c2ccc(C(CC(C)C)n3ccnc3)s2)cc1` (stereo not drawn) [Example 39, 1-{1-[5-(4-Methoxy-phenyl)-thiophen-2-yl]-3-methyl-butyl}-1H-imidazole] showed an IC50 on rat CYP17 of less than 50 nM.

At rat CYP17, `CC(c1ccc(-c2ccoc2)cn1)n1ccnc1` (stereo not drawn) [Example 13, 2-(1-(1H-imidazol-1-yl)ethyl)-5-(furan-3-yl)pyridine] registered an IC50 of less than 50 nM.

With `CCOC(=O)c1ccc(-c2ccc(C(CC)n3ccnc3)nc2)cc1` (stereo not drawn) [Example 5, Ethyl 4-(6-(1-(1H-imidazol-1-yl)propyl)pyridin-3-yl)benzoate], the IC50 against rat CYP17 lay within 50 to 200 nM.
